{
  "source": "paper PMC2747480",
  "about": "(Journal of medicinal chemistry, 2009)",
  "key": {"[1]": {"test_system": "Bax/Bak double knockout MEF cells (DKO/MEFs)", "assay": "Bax/Bak double knockout MEF cytotoxicity, FITC-Annexin V/PI assay", "type": "cell-based, mouse", "conditions": "10 μM, result in words"}, "[2]": {"assay": "in vitro plasma stability"}, "[3]": {"assay": "in vitro microsomal stability", "conditions": "rat microsomes"}, "[4]": {"test_system": "Bcl-2 transgenic mice", "assay": "spleen weight reduction in Bcl-2 transgenic mice", "type": "in vivo, mouse", "conditions": "single ip injection, 72 μmol/kg, result in words"}, "[5]": {"test_system": "BP3 cells", "assay": "BP3 cells, Annexin V-FITC and propidium iodide assay", "conditions": "result in words"}, "[6]": {"test_system": "RS11846 cells", "assay": "RS11846 apoptosis, Annexin V-FITC and propidium iodide assay", "conditions": "result in words"}, "[7]": {"assay": "chemical stability as solid powder at room temperature", "type": "physicochemical", "conditions": "in air, no ascorbic acid"}, "[8]": {"conditions": "result in words; cited from earlier work"}, "[9]": {"biological_target": "GST–Bcl-XL ΔTM protein (Homo sapiens, UniProt Q07817)", "sequence (Q07817 1-209 limits assumed, stated change not applied)": "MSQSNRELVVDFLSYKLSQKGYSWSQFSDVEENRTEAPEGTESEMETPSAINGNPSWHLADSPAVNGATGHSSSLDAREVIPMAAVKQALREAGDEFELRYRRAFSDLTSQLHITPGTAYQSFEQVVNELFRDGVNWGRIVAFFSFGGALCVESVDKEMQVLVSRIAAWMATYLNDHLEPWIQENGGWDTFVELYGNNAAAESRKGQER", "assay": "competitive fluorescence polarization assay", "type": "binding", "conditions": "relative to compound 2"}, "[10]": {"biological_target": "GST-Bcl-2 (Homo sapiens, UniProt P10415)", "sequence (P10415 whole entry)": "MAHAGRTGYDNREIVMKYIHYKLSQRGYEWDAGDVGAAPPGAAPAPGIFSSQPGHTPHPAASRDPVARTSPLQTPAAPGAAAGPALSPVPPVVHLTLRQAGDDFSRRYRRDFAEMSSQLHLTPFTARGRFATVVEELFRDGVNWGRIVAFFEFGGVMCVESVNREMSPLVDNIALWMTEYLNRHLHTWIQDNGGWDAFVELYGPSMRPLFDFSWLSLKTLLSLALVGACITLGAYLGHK", "assay": "competitive fluorescence polarization assay", "type": "binding", "conditions": "relative to compound 2"}, "[11]": {"biological_target": "GST-Mcl-1 (Homo sapiens, UniProt Q07820)", "sequence (Q07820 whole entry)": "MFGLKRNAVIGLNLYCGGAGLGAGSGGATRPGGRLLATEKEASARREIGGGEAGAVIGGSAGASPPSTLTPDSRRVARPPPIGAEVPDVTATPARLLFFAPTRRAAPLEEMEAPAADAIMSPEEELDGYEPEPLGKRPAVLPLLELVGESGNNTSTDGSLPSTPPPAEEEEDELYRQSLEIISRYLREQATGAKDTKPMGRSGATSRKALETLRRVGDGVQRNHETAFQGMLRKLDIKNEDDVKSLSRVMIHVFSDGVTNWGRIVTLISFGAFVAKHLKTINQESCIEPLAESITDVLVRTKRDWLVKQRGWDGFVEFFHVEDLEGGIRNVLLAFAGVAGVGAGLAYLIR", "assay": "competitive fluorescence polarization assay", "type": "binding", "conditions": "relative to compound 2"}, "[12]": {"biological_target": "T1, Bfl-1 (Homo sapiens, UniProt Q16548)", "T1 sequence (Q16548 1-175)": "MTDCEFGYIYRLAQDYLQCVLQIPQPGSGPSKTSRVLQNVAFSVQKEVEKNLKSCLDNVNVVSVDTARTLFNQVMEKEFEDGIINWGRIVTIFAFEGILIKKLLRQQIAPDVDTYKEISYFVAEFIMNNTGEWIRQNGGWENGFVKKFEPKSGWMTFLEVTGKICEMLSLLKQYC", "assay": "competitive fluorescence polarization assay", "type": "binding", "conditions": "relative to compound 2"}, "[13]": {"biological_target": "Bcl-XL (Homo sapiens, UniProt Q07817)", "sequence (Q07817 whole entry)": "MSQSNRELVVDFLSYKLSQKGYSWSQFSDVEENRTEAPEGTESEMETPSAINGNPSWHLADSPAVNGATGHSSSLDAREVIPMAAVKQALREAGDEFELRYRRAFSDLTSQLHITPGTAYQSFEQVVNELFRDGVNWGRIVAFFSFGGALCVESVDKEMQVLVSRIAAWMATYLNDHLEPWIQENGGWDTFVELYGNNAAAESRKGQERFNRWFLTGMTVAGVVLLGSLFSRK", "assay": "Isothermal Titration Calorimetry", "type": "binding", "conditions": "relative to compound 2"}, "[14]": {"conditions": "single dose of 100, 75, 50 and 25 mg/kg ip, 14 days, result in words"}},
  "note": "Entries after “also recorded” stand apart in the source; their conditions may differ.",
  "data": [
    {"molecule": "Cc1cc2c(C(=O)NC(C)c3ccc(Cl)cc3)c(O)c(O)cc2c(O)c1-c1c(C)cc2c(C(=O)NC(C)c3ccc(Cl)cc3)c(O)c(O)cc2c1O", "note": "(stereo not shown) [Compound 8k, N^5,N^5′-Bis(1-(4-chlorophenyl)ethyl)-1,1′,6,6′,7,7′-hexahydroxy-3,3′-dimethyl-2,2′-binaphthyl-5,5′-dicarboxamide]", "values": [
      {"measurement": "killing of DKO/MEFs (bax−/−bak−/− cells)", "setting": "[1]", "value": "ineffective"}
    ]},
    {"molecule": "Cc1cc2c(C(=O)NCC3CCCCC3)c(O)c(O)cc2c(O)c1-c1c(C)cc2c(C(=O)NCC3CCCCC3)c(O)c(O)cc2c1O", "note": "[Compound 8m, N^5,N^5′-Bis(cyclohexylmethyl)-1,1′,6,6′,7,7′-hexahydroxy-3,3′-dimethyl-2,2′-binaphthyl-5,5′-dicarboxamide]", "values": [
      {"measurement": "killing of DKO/MEFs (bax−/−bak−/− cells)", "setting": "[1]", "value": "ineffective"},
      {"measurement": "degraded after 1 h incubation in rat plasma", "setting": "[2]", "value": 11, "unit": "%"},
      {"measurement": "degraded after 1 h incubation in rat microsomal preparations", "setting": "[3]", "value": 10, "unit": "%"}
    ]},
    {"molecule": "Cc1cc2c(CC3CCCC3)c(O)c(O)cc2c(O)c1-c1c(C)cc2c(CC3CCCC3)c(O)c(O)cc2c1O", "note": "[Compound 12c, 5,5′-Bis(cyclopentylmethyl)-3,3′-dimethyl-2,2′-binaphthyl-1,1′,6,6′,7,7′-hexaol]", "values": [
      {"measurement": "in vivo activity in Bcl-2 transgenic mice", "setting": "[4]", "value": "lower in vivo activity"}
    ]},
    {"molecule": "CN(C)CC[C@H](CSc1ccccc1)Nc1ccc(S(=O)(=O)NC(=O)c2ccc(N3CCN(Cc4ccccc4-c4ccc(Cl)cc4)CC3)cc2)cc1[N+](=O)[O-]", "note": "[Compound 15]", "values": [
      {"measurement": "cytotoxic activity against BP3 cell lines", "setting": "[5]", "value": "no cytotoxic activity"}
    ]},
    {"molecule": "Cc1cc2c(C(=O)NCCc3cccc(Cl)c3)c(O)c(O)cc2c(O)c1-c1c(C)cc2c(C(=O)NCCc3cccc(Cl)c3)c(O)c(O)cc2c1O", "note": "[Compound 8p, N^5,N^5′-Bis(3-chlorophenethyl)-1,1′,6,6′,7,7′-hexahydroxy-3,3′-dimethyl-2,2′-binaphthyl-5,5′-dicarboxamide]", "values": [
      {"measurement": "killing of DKO/MEFs (bax−/−bak−/− cells)", "setting": "[1]", "value": "ineffective"}
    ]},
    {"molecule": "Cc1cc2cc(O)c(O)cc2c(O)c1-c1c(C)cc2cc(O)c(O)cc2c1O", "note": "[Compound 13, 3,3′-Dimethyl-2,2′-binaphthyl-1,1′,6,6′,7,7′-hexaol]", "values": [
      {"measurement": "induction of apoptosis of the RS11846 cell line", "setting": "[6]", "value": "little or no apoptosis"}
    ]},
    {"molecule": "CCc1ccc(CCNC(=O)c2c(O)c(O)cc3c(O)c(-c4c(C)cc5c(C(=O)NCCc6ccc(CC)cc6)c(O)c(O)cc5c4O)c(C)cc23)cc1", "note": "[Compound 8q, N^5,N^5′-Bis(4-ethylphenethyl)-1,1′,6,6′,7,7′-hexahydroxy-3,3′-dimethyl-2,2′-binaphthyl-5,5′-dicarboxamide]", "values": [
      {"measurement": "killing of DKO/MEFs (bax−/−bak−/− cells)", "setting": "[1]", "value": "ineffective"},
      {"measurement": "degraded after 60 days at room temperature", "setting": "[7]", "value": 10, "unit": "%"}
    ]},
    {"molecule": "Cc1cc2c(C(=O)Cc3ccccc3)c(O)c(O)cc2c(O)c1-c1c(C)cc2c(C(=O)Cc3ccccc3)c(O)c(O)cc2c1O", "note": "[Compound 3]", "values": [
      {"measurement": "GI toxicity in mice", "setting": "[8]", "value": "mild GI toxicity"}
    ]},
    {"molecule": "Cc1cc2c(C(=O)NCC(C)c3ccccc3)c(O)c(O)cc2c(O)c1-c1c(C)cc2c(C(=O)NCC(C)c3ccccc3)c(O)c(O)cc2c1O", "note": "(stereo not shown) [Compound 8r, 1,1′,6,6′,7,7′-Hexahydroxy-3,3′-dimethyl-N^5,N^5′-bis(2-phenylpropyl)-2,2′-binaphthyl-5,5′-dicarboxamide]", "values": [
      {"measurement": "times more effective than 2, FP displacement Bcl-XL", "setting": "[9]", "value": 5, "unit": "times"},
      {"measurement": "times higher potency than compound 2, FP Bcl-2", "setting": "[10]", "value": "approximately 10 times"},
      {"measurement": "times higher potency than compound 2, FP Mcl-1", "setting": "[11]", "value": "approximately 10 times"},
      {"measurement": "times higher potency than compound 2, FP Bfl-1", "setting": "[12]", "value": "approximately 10 times"},
      {"measurement": "times more potent than compound 2, ITC Bcl-XL", "setting": "[13]", "value": 15, "unit": "times"},
      {"measurement": "killing of DKO/MEFs (bax−/−bak−/− cells)", "setting": "[1]", "value": "ineffective; also recorded: little cytotoxicity"},
      {"measurement": "degraded after 60 days at room temperature", "setting": "[7]", "value": 10, "unit": "%"},
      {"measurement": "mortality", "setting": "[14]", "value": "All mice were alive after 14 days"},
      {"measurement": "degraded after 1 h incubation in rat plasma", "setting": "[2]", "value": 4, "unit": "%"},
      {"measurement": "degraded after 1 h incubation in rat microsomal preparations", "setting": "[3]", "value": 24, "unit": "%"}
    ]},
    {"molecule": "Cc1cc2c(C(C)C)c(O)c(O)cc2c(O)c1-c1c(C)cc2c(C(C)C)c(O)c(O)cc2c1O", "note": "[Compound 2, 5,5′-Diisopropyl-1,1′,6,6′,7,7′-hexahydroxy-3,3′-dimethyl-2,2′-binaphthalene, reference compound]", "values": [
      {"measurement": "killing of DKO/MEFs (bax−/−bak−/− cells)", "setting": "[1]", "value": "reduced cytotoxicity against MEF/DKOs"},
      {"measurement": "degraded after 60 days at room temperature", "setting": "[7]", "value": "~80", "unit": "%"},
      {"measurement": "degraded after 1 h incubation in rat plasma", "setting": "[2]", "value": 47, "unit": "%"},
      {"measurement": "degraded after 1 h incubation in rat microsomal preparations", "setting": "[3]", "value": 36, "unit": "%"}
    ]},
    {"molecule": "Cc1cc2c(CCc3ccccc3)c(O)c(O)cc2c(O)c1-c1c(C)cc2c(CCc3ccccc3)c(O)c(O)cc2c1O", "note": "[Compound 12e, 3,3′-Dimethyl-5,5′-diphenethyl-2,2′-binaphthyl-1,1′,6,6′,7,7′-hexaol]", "values": [
      {"measurement": "in vivo activity in Bcl-2 transgenic mice", "setting": "[4]", "value": "lower in vivo activity"}
    ]},
    {"molecule": "Cc1cc2c(C(C)C)c(O)c(O)c(C=O)c2c(O)c1-c1c(C)cc2c(C(C)C)c(O)c(O)c(C=O)c2c1O", "note": "[Compound 1, 1,1′,6,6′,7,7′-Hexahydroxy-5,5′-diisopropyl-3,3′-dimethyl-2,2′-binaphthyl-8,8′-dicarboxaldehyde, reference compound]", "values": [
      {"measurement": "killing of DKO/MEFs (bax−/−bak−/− cells)", "setting": "[1]", "value": "equally effective in killing both wt MEFs and MEF/DKOs"}
    ]},
    {"molecule": "Cc1cc2c(C(=O)O)c(O)c(O)cc2c(O)c1-c1c(C)cc2c(C(=O)O)c(O)c(O)cc2c1O", "note": "[Compound 14, 1,1′,6,6′,7,7′-Hexahydroxy-3,3′-dimethyl-2,2′-binaphthyl-5,5′-dicarboxylic acid]", "values": [
      {"measurement": "induction of apoptosis of the RS11846 cell line", "setting": "[6]", "value": "little or no apoptosis"}
    ]}
  ]
}
